In ChEMBL document CHEMBL1201862, “PubChem BioAssay data set” (2004):
Active and inactive are the calls of the source.

How the values were obtained:
[1] = target: T1, Rac GTPase-activating protein 1 (Homo sapiens, UniProt Q9H0H5); experiment: blockers of MgcRacGAP-driven Rac1 GTP hydrolysis – biochemical, ADP Hunter fluorescence, primary and confirmatory, confirmation (AID 624330); format: functional
T1 sequence (Q9H0H5 whole entry): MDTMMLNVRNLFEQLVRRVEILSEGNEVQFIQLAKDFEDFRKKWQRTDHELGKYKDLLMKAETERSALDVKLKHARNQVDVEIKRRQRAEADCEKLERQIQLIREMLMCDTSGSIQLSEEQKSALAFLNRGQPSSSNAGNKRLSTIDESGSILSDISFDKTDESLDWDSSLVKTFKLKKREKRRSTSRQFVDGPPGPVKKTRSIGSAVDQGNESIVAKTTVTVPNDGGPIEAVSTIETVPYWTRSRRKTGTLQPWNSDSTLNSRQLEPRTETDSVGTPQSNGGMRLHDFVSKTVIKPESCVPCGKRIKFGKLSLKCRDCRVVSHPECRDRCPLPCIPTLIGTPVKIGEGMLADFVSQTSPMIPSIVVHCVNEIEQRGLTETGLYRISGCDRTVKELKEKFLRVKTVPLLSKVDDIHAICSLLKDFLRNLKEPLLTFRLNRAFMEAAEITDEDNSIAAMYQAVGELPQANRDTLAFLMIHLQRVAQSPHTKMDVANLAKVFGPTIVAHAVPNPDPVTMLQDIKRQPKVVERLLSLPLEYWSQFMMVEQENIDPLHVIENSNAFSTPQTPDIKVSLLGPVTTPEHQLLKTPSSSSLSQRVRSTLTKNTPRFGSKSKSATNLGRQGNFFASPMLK

[2] = target: T2, Histone-lysine N-methyltransferase NSD2 (Homo sapiens, UniProt O96028); format: biochemical
T2 sequence (O96028 whole entry): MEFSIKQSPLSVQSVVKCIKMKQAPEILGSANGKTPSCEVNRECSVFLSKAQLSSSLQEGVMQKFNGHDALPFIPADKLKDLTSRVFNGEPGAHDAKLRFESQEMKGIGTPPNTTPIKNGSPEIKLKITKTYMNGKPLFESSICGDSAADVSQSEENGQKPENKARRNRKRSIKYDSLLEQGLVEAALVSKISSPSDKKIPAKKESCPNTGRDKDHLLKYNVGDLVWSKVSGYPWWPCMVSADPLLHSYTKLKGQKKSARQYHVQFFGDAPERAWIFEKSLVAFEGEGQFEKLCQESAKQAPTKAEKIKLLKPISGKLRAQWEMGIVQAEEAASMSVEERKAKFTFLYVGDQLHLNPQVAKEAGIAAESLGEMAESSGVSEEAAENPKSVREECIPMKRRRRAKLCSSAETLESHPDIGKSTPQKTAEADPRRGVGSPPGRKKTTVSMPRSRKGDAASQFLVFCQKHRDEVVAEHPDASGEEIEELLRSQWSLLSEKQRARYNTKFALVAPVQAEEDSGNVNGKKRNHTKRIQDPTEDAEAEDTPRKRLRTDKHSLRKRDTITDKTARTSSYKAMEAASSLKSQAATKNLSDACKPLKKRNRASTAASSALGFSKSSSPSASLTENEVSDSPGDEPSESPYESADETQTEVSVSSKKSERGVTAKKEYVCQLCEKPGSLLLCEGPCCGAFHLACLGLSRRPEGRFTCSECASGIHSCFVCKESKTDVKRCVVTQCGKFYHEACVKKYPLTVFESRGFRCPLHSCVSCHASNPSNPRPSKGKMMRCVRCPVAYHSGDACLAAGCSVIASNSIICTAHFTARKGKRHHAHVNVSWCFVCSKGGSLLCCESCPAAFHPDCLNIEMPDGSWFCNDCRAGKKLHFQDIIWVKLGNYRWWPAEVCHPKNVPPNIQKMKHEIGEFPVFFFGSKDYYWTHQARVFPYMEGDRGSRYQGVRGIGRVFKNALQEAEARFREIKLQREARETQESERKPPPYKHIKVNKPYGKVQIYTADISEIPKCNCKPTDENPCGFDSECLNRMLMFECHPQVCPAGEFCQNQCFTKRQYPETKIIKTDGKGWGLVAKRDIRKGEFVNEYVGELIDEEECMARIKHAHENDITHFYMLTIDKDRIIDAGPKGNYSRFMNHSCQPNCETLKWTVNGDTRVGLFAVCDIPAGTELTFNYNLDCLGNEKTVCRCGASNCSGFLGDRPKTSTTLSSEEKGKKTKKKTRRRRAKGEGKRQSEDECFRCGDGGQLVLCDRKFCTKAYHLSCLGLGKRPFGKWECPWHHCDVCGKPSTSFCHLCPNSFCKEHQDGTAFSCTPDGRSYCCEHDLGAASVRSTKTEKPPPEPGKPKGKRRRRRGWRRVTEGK

[3] = target: Beta-galactosidase (Escherichia coli, UniProt Q8VNN2); experiment: PubChem AID 485352; format: functional
Chain of Beta-galactosidase (Q8VNN2 whole entry): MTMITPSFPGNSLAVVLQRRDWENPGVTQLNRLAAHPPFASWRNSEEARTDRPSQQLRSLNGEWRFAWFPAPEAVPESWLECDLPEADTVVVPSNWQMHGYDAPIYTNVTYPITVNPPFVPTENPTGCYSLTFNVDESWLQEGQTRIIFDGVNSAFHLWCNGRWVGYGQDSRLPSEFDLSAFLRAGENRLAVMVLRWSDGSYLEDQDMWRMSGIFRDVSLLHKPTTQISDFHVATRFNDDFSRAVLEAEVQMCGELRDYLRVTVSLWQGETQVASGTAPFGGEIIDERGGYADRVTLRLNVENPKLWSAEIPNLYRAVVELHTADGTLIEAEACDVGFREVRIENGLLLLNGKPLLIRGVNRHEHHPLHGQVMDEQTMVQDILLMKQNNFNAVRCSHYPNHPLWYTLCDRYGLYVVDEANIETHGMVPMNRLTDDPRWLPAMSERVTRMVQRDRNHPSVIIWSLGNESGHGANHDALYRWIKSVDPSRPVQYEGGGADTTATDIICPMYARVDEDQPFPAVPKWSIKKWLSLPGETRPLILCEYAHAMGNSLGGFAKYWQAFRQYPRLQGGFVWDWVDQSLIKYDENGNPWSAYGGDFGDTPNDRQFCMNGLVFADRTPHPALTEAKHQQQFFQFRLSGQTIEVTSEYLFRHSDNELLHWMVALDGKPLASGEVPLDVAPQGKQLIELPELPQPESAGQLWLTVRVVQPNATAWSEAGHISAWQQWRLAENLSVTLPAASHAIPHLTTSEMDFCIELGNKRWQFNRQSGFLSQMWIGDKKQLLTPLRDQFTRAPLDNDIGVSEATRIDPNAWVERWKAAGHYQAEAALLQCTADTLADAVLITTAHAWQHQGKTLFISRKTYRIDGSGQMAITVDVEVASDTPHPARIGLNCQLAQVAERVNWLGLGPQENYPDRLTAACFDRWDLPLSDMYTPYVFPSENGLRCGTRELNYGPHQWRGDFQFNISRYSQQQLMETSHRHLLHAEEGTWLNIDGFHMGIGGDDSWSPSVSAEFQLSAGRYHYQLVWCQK

[4] = target: T3, Type-1 angiotensin II receptor (Homo sapiens, UniProt P30556); experiment: antagonism of angiotensin II type 1 receptor – cell-based, uHTS hits, selectivity assay for APJ receptor antagonist project, dose response (AID 463214); format: functional;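 note: antagonist potency against angiotensin II stimulated AT1 response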
T3 sequence (P30556 whole entry): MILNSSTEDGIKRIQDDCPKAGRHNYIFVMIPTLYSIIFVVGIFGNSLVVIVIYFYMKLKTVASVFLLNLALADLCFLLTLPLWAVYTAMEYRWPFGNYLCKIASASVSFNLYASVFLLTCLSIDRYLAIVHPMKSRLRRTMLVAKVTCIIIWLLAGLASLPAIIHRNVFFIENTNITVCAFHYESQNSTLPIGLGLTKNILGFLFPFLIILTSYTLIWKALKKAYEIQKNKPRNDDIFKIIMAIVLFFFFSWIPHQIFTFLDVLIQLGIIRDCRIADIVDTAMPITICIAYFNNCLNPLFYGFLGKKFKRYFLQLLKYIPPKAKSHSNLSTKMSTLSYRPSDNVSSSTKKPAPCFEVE

[5] = target: T4, Polyadenylate-binding protein 1 (Homo sapiens, UniProt P11940); experiment: MLLE binding blockers, Cy5 peptide tracer – biochemical, fluorescence polarization, Cy5-PAM2 peptide, secondary, miRNA deadenylation inhibitor project, dose response (AID 602260); format: functional; details: read-out: IC50_Mean
T4 sequence (P11940 whole entry, the tested form may be a part): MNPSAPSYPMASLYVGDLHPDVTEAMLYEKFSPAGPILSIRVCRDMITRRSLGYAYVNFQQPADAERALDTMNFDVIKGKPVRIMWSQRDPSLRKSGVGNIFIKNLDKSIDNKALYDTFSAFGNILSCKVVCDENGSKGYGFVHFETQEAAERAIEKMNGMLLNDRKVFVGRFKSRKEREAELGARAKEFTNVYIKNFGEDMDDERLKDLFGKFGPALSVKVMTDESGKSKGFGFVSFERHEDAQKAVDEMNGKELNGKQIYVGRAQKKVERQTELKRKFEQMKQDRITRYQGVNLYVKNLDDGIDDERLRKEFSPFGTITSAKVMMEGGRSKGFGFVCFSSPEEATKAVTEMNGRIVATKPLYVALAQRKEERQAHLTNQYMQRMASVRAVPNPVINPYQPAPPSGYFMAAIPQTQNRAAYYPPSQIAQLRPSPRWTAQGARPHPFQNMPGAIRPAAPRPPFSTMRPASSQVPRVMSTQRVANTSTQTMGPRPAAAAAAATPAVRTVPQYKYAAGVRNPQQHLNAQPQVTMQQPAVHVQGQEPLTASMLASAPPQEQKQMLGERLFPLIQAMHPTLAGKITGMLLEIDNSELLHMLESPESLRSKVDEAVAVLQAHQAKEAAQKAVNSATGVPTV

[6] = target: T4, Polyadenylate-binding protein 1; experiment: MLLE domain peptide-binding blockers, IC50 – biochemical, fluorescence polarization, FITC-PAM2 peptide, dose response (AID 602259); format: functional; details: read-out: IC50_Mean
[7] = blockers of HIV-1 envelope-mediated cell-cell fusion – cherry-pick, dose response (AID 652057); format: functional, cell-based
[8] = HIV-1 AD8 envelope cell-cell fusion blockers – cherry-pick, dose response (AID 652062); format: functional, cell-based;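 note: luciferase signal from cell-cell fusion driven by HIV-1 clade B AD8 Env; potency is for inhibitors of fusion seen as a drop in luminescence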
[9] = target: T5, Calpain-2 catalytic subunit (Sus scrofa, UniProt P43367); experiment: m-calpain protease blockers, concentration series – biochemical, fluorogenic peptide substrate, dose response (AID 1420); format: functional
T5 sequence (P43367 whole entry): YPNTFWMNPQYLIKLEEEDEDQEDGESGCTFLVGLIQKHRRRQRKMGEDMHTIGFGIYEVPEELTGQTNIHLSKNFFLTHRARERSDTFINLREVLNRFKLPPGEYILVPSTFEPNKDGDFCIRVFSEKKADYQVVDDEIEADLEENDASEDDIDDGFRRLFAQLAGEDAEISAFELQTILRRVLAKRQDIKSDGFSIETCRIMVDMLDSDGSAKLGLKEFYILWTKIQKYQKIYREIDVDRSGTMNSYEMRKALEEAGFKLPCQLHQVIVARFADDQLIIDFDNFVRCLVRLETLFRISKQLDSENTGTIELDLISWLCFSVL

[10] = target: T6, Aminopeptidase N (Plasmodium falciparum FcB1/Columbia, UniProt O96935); experiment: malaria alanyl aminopeptidase activity blockers – biochemical, fluorogenic H-Leu-NHMec substrate, 1536-well (AID 1445); design: species or system Plasmodium falciparum 3D7, 3D7
T6 sequence (O96935 whole entry): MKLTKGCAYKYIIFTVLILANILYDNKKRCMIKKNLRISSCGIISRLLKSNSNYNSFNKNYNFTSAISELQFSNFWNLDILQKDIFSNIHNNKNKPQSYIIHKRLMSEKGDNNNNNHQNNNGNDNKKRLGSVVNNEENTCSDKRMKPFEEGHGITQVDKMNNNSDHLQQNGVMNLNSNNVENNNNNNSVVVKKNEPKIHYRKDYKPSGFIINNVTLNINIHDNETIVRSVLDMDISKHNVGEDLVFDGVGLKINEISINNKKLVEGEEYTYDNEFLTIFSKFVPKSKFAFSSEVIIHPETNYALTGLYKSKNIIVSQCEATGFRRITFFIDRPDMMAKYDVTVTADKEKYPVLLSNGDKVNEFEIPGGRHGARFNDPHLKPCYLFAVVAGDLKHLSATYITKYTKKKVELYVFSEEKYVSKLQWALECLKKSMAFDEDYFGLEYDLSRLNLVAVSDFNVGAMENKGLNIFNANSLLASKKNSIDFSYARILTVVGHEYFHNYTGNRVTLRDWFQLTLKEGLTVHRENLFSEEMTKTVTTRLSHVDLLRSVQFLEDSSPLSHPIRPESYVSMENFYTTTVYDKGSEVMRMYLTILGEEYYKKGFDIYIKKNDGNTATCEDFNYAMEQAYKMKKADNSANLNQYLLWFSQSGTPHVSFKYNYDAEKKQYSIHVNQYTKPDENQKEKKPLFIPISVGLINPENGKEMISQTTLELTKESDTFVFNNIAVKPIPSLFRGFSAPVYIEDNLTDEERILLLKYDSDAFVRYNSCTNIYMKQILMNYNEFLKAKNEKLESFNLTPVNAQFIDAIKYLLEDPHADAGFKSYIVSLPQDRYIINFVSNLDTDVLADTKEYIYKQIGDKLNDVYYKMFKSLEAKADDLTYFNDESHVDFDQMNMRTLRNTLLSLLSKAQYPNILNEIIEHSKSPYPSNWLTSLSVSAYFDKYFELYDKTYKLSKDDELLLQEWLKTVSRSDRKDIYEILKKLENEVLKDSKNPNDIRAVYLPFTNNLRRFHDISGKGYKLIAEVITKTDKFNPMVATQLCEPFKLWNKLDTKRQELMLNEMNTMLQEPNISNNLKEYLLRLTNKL

[11] = HIV-1 Vif–A3G interaction blockers – biochemical, TR-FRET, GST-Vif 1-94, biotin-A3G peptide, dose response retest, primary screen (AID 1117319); format: functional;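 note: TR-FRET signal of purified GST-Vif binding a biotinylated A3G peptide; inhibitors lower the FRET signal by blocking Vif and A3G binding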
[12] = target: Cytochrome P450 2C9 (Homo sapiens, UniProt P11712)
Chain of Cytochrome P450 2C9 (P11712 whole entry): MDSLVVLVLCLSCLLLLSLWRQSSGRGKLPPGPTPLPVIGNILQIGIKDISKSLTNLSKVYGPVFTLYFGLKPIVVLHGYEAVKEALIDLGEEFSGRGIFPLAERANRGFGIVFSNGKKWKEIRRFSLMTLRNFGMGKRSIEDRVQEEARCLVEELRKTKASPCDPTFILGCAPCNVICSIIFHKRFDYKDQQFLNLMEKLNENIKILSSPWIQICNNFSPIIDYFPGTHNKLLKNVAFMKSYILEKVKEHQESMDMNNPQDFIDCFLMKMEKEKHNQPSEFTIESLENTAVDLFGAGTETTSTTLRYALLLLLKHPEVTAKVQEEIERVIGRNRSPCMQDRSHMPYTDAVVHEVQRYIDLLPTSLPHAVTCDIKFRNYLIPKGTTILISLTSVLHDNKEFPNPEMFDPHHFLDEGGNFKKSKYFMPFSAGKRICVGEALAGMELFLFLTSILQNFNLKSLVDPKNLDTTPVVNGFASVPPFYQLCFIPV

[13] = target: 26S proteasome non-ATPase regulatory subunit 14 (Homo sapiens, UniProt O00487); experiment: inhibition of proteasome subunit RPN11 – biochemical, fluorescence polarization, uHTS hits, confirmation (AID 602368); format: functional
Chain of 26S proteasome non-ATPase regulatory subunit 14 (O00487 whole entry): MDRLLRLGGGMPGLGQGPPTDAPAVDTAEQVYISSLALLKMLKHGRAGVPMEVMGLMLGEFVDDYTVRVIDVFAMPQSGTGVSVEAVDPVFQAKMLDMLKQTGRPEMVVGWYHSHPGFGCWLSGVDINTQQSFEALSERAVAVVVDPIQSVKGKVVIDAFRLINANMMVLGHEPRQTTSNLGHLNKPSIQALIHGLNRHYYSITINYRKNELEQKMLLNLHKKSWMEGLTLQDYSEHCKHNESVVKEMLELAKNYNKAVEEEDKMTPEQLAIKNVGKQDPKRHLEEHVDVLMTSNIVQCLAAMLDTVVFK

[14] = target: 72 kDa type IV collagenase (Homo sapiens, UniProt P08253); experiment: Dose Response validation of uHTS RPN11 inhibitor hits using a MMP-2 Fluorescence assay.; format: functional
Chain of 72 kDa type IV collagenase (P08253 whole entry): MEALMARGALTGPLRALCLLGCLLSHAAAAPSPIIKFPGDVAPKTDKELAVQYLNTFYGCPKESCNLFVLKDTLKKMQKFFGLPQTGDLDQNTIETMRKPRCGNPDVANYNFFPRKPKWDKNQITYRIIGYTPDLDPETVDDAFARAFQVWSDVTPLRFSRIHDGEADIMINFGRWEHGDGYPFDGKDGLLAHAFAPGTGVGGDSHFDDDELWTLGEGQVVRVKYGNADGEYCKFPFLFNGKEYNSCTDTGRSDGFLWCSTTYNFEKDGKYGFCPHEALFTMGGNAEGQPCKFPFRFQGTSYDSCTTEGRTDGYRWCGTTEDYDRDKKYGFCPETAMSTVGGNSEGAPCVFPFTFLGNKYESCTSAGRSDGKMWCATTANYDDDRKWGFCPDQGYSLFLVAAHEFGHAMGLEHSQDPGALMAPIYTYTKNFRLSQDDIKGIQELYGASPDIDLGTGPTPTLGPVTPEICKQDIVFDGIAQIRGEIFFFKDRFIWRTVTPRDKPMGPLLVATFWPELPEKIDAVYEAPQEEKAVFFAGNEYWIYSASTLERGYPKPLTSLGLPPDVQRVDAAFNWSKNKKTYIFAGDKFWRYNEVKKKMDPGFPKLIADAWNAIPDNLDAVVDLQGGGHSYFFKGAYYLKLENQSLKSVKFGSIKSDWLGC

[15] = target: Prothrombin (Bos taurus, UniProt P00735); experiment: thrombin protease inhibitors – biochemical, fluorescence polarization, uHTS hits, dose response (AID 602369); format: functional
[16] = Trypanosoma cruzi growth suppression in host cells – NIH3T3 host cells, beta-gal luminescence, confirmation (AID 2044); format: functional, cell-based;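 note: intracellular parasites grown in NIH/3T3 mouse fibroblasts as host cells; luminescent beta-galactosidase reporter signal from transgenic T. cruzi replicating inside host cells; inhibitors lower the luminescence signal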
[17] = NIH3T3 cell viability loss – ATP luminescence, mouse fibroblasts, counter-screen, dose response (AID 2010); format: functional, cell-based;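 note: cells exposed to compound for about 90 hours before reading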
[18] = growth inhibition of yeast DHODH-expressing 3D7 parasites – SYBR Green, dry powder samples, dose response (AID 1159570); format: functional, cell-based;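 note: parasite growth measured after 72 hours of compound exposure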
[19] = P. falciparum Dd2 growth inhibitors, dose response, SYBR Green, cherry-picked samples (AID 1159567); format: functional, cell-based
[20] = Dd2 malaria parasite growth inhibition potency – SYBR Green, dry powder samples, dose response (AID 1159566); format: functional, cell-based;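 note: potency for growth inhibition with lower SYBR green DNA signal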
[21] = growth inhibition of PfATP4-mutant resistant parasites – NITD609-resistant line, SYBR Green, dry powder, dose response (AID 1159571); format: functional, cell-based;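 note: parasites synchronized at ring stage by sorbitol before testing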

N=C1/C(=C\c2ccc(O)c(O)c2)C(=O)N=C2SC(CC(=O)N3CCOCC3)=NN12
IC50 [1]: 63.6 µM (active)
AC50 [2]: 1.79 µM (active)

C/C(=N\NC(=S)Nc1cccc(C)c1)c1ccccc1
EC50 [3]: > 40 µM (inactive)
IC50 [4]: > 40 µM (not active)
IC50 [5]: > 66 µM (inactive)
IC50 [6]: > 66 µM (inactive)

CC(c1nc(O)c2ccccc2n1)N(C)CCOc1ccc(Cl)cc1 (centres undefined)
AC50 [7]: 57.3 µM (active)
AC50 [8]: 28.3 µM (active)

O=C(N/N=C/c1cc(Br)cs1)c1c[nH]c2ccccc12
IC50 [9]: 4.39 µM (not active)

O=C(CN1CCC(NC(=O)c2cccc(F)c2)CC1)NCc1ccccc1F
IC50 [10]: 23.2 µM (active)
IC50 [11]: > 100 µM (active)

O=S(=O)(Nc1ccc2c(c1)nc1n2CCN(Cc2ccccc2)C1)c1ccc(Cl)cc1
IC50 [11]: > 100 µM (active)

COc1cccc(CN2CCNC(=O)C2CC(=O)NCCn2nc(C)cc2C)c1OC (centres undefined)
IC50 [11]: > 100 µM (active)

Cc1ccc[n+](CC(=O)c2cc3ccccc3oc2=O)c1
IC50 [11]: > 100 µM (active)
AC50 [12]: 1.78 µM (inconclusive)

O=C(CSc1nc2ccccc2o1)Nc1nc2c(s1)CCCC2
IC50 [13]: 30.6 µM (active)
IC50 [14]: > 100 µM (inactive)
IC50 [15]: 24 µM (active)

Cn1cc(/C=N\O)nc2c(=O)n(-c3ccccc3)c(=O)nc1-2
IC50 [5]: > 66 µM (inactive)
IC50 [6]: > 66 µM (inactive)

CC1SC(N/N=C/c2ccco2)=NC1=O (centres undefined)
IC50 [11]: > 100 µM (active)

CNCCCOc1cccc(Oc2ccccc2)c1
EC50 [16]: 1.29 µM (active)
EC50 [17]: > 30 µM (not active)
AC50 [2]: > 20 µM (inactive)

CCOC(=O)CSc1nc(C(C)C)nc2sc(C)c(C)c12
IC50 [9]: 2.34 µM (not active)

Cc1ccc(SCC(=O)c2c(C)nc3cc(C)ccn23)cc1
IC50 [9]: 6.79 µM (not active)

COc1cc(C(=S)N2CCOCC2)ccc1O [VANITIOLIDE]
IC50 [5]: > 66 µM (inactive)
IC50 [6]: > 66 µM (inactive)

Cc1ccc(S(=O)(=O)N(C)C[C@@H]2OCc3ccccc3-c3c(n(C)c4ccccc34)C(=O)N([C@@H](C)CO)C[C@@H]2C)cc1
AC50 [18]: 0.427 µM (active)
AC50 [19]: 0.611 µM (active)
AC50 [20]: 0.346 µM (active)
AC50 [21]: 0.291 µM (active)

CSc1nc2oc3c(c2c2nncn12)CC(C)(C)SC3
IC50 [5]: > 66 µM (inactive)
IC50 [6]: > 66 µM (inactive)
